Measurements reported in patent US20260202414A1, “PROTEIN COMPLEXES FOR PROXIMITY-BASED LABELING OF INTRACELLULAR MICROENVIRONMENTS” (THE TRUSTEES OF PRINCETON UNIVERSITY, priority 2022, published 2026).

Tested on: cereblon (CRBN)
Assay: Proximity labeling study with CRBN-bound iridium complex and diazo-biotin (FIG. 3/4)
Assay type: cell-based
Settings: transfected cells expressing CRBN with BCNK, tetrazine iridium complex bound to CRBN, diazo-biotin, irradiation; in the presence of CC-885 (without CC-885 only CRBN is enriched)
Description: Alternatively, the transition metal complex can be bonded to a derivatized amino acid or unnatural amino acid of the protein substrate or E3 ligase. Suitable click chemistry moieties of the transition metal complex and/or unnatural amino acid can be selected from the group consisting of DBCO, BCN, TCO, tetrazine, alkyne and azide. FIG. 3 illustrates validation of such a binding strategy with cereblon (CRBN). Transfected cells were employed to express CRBN with BCNK. Iridium complex comprising a tetrazine moiety was introduced to bind the iridium complex to CRBN. CRBN modulator CC-885 was added to bind to CRBN, and diazo-biotin was added as a protein labeling agent. The iridium complex was irradiated to form a reactive intermediate through energy transfer to the diazo-biotin as described further herein. The reactive intermediate binding to biomolecular species within a predetermined radius of the CRBN-Ir. FIG. 4 illustrates the results of the labeling study. […] In the absence of CC-885, only CRBN is enriched.

Cc1ccc(NC(=O)NCc2ccc3c(c2)CN(C2CCC(=O)NC2=O)C3=O)cc1Cl (stereo not shown) [CC-885]
proteins enriched in the labeling study: CRBN and GSPT1 are enriched
